Experimental data from ChEMBL document CHEMBL1138106, “The discovery of a potent and selective lethal factor inhibitor for adjunct therapy of anthrax infection” (Bioorg Med Chem Lett, 2006).

Key:
Lethal factor [1] = biological target: T1, Lethal factor (Bacillus anthracis, UniProt P15917)
T1 sequence (P15917 whole entry): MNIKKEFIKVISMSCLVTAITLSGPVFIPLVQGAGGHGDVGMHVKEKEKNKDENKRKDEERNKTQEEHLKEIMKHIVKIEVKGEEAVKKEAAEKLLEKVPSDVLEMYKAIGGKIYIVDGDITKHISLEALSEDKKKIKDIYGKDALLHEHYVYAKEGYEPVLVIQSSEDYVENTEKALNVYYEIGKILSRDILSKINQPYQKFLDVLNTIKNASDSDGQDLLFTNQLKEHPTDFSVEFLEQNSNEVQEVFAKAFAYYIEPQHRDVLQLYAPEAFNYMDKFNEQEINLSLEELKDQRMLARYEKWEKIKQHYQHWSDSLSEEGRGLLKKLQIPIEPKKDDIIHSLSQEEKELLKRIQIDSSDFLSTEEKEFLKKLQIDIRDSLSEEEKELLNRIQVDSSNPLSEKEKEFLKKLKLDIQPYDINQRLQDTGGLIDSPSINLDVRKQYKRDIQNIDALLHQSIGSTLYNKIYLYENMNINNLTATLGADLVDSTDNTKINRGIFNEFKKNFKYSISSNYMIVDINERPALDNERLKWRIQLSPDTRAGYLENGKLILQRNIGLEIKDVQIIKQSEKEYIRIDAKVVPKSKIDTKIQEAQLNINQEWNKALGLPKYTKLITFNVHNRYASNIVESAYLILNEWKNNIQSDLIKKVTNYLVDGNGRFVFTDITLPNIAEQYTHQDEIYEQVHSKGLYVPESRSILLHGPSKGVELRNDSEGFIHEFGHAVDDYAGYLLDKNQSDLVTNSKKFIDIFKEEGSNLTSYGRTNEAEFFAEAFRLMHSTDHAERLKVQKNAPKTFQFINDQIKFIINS

Lethal factor [2] = biological target: T1, Lethal factor; remark: listed apart in the source
Lethal factor [3] = biological target: T1, Lethal factor; test: Inhibition of LF

Compound: Cc1ccc(S(=O)(=O)N[C@@H](C(=O)NO)C(C)C)cc1
- IC50 (Lethal factor [1]): 15 µM
- IC50 (Lethal factor [2]): 3 µM

Compound: CC(C)[C@@H](NS(=O)(=O)c1cccc(F)c1)C(=O)NO
- IC50 (Lethal factor [1]): 12.4 µM
- IC50 (Lethal factor [2]): 2.8 µM

Compound: Cc1cc(S(=O)(=O)N[C@@H](C(=O)NO)C(C)(C)C)ccc1F
- IC50 (Lethal factor [1]): 2.3 µM
- IC50 (Lethal factor [2]): 0.3 µM

Compound: Cc1cc(S(=O)(=O)N[C@H](CCNC(=O)CN)C(=O)NO)ccc1F
- IC50 (Lethal factor [1]): 7.4 µM
- IC50 (Lethal factor [2]): 0.037 µM

Compound: CC(C)[C@@H](NS(=O)(=O)Cc1cccc(Cl)c1)C(=O)NO
- IC50 (Lethal factor [1]): > 20 µM
- IC50 (Lethal factor [2]): 16.6 µM

Compound: CC(C)[C@@H](NS(=O)(=O)c1ccc(C(F)(F)F)cc1)C(=O)NO
- IC50 (Lethal factor [1]): > 20 µM
- IC50 (Lethal factor [2]): > 40 µM

Compound: CC(C)[C@@H](NS(=O)(=O)CCc1ccccc1)C(=O)NO
- IC50 (Lethal factor [1]): > 20 µM
- IC50 (Lethal factor [2]): 11.9 µM

Compound: Cc1cc(S(=O)(=O)N[C@@H](C(=O)NO)[C@H]2CCOC2)ccc1F
- IC50 (Lethal factor [1]): 0.45 µM
- IC50 (Lethal factor [2]): 0.12 µM

Compound: Cc1cc(S(=O)(=O)N[C@@H](C(=O)NO)C2CCCC2)ccc1F
- IC50 (Lethal factor [1]): 0.17 µM
- IC50 (Lethal factor [2]): 0.064 µM

Compound: Cc1cc(S(=O)(=O)N[C@H](CCCN=C(N)N)C(=O)NO)ccc1F
- IC50 (Lethal factor [1]): 1.7 µM
- IC50 (Lethal factor [2]): 0.04 µM

Compound: CCCCOc1ccc(S(=O)(=O)N[C@@H](C(=O)NO)C(C)C)cc1
- IC50 (Lethal factor [1]): > 20 µM
- IC50 (Lethal factor [2]): > 40 µM

Compound: Cc1cc(S(=O)(=O)N[C@H](CC2CC2)C(=O)NO)ccc1F
- IC50 (Lethal factor [1]): 0.13 µM
- IC50 (Lethal factor [2]): 0.051 µM

Compound: CC(=O)N(Cc1cccnc1)[C@@H](C(=O)NO)C(C)C
- IC50 (Lethal factor [1]): > 20 µM
- IC50 (Lethal factor [2]): > 40 µM

Compound: CC(C)[C@@H](NS(=O)(=O)c1ccccc1)C(=O)NO
- IC50 (Lethal factor [1]): 7.8 µM
- IC50 (Lethal factor [2]): 1.1 µM

Compound: CC[C@@H](NS(=O)(=O)c1ccc(F)c(C)c1)C(=O)NO
- IC50 (Lethal factor [1]): 0.49 µM
- IC50 (Lethal factor [2]): 0.1 µM

Compound: Cc1cc(S(=O)(=O)N[C@@H](C(=O)NO)c2ccccc2)ccc1F
- IC50 (Lethal factor [1]): 0.37 µM
- IC50 (Lethal factor [2]): 0.05 µM

Compound: COc1ccc(S(=O)(=O)N[C@@H](C(=O)NO)C(C)C)cc1
- IC50 (Lethal factor [1]): 7.3 µM
- IC50 (Lethal factor [2]): 0.9 µM

Compound: CC[C@@H](C)[C@@H](NS(=O)(=O)c1ccc(F)c(C)c1)C(=O)NO
- IC50 (Lethal factor [1]): 0.13 µM
- IC50 (Lethal factor [2]): 0.067 µM

Compound: Cc1cc(S(=O)(=O)N[C@H](CCNC(=O)[C@H](C)N)C(=O)NO)ccc1F
- IC50 (Lethal factor [1]): 7.47 µM
- IC50 (Lethal factor [2]): 0.059 µM

Compound: Cc1cc(S(=O)(=O)N[C@@H](C(=O)NO)C2CC2)ccc1F
- IC50 (Lethal factor [1]): 0.73 µM
- IC50 (Lethal factor [2]): 0.12 µM

Compound: CC(C)[C@@H](NS(=O)(=O)c1ccccc1F)C(=O)NO
- IC50 (Lethal factor [1]): > 20 µM
- IC50 (Lethal factor [2]): 6.6 µM

Compound: COc1ccc(S(=O)(=O)N(CCn2ccnc2)[C@@H](C(=O)NO)C(C)C)cc1
- IC50 (Lethal factor [2]): 19.1 µM

Compound: CCCC[C@@H](NS(=O)(=O)c1ccc(F)c(C)c1)C(=O)NO
- IC50 (Lethal factor [1]): 0.41 µM
- IC50 (Lethal factor [2]): 0.07 µM

Compound: COc1ccc(S(=O)(=O)N(CCc2ccsc2)[C@@H](C(=O)NO)C(C)C)cc1
- IC50 (Lethal factor [2]): 2.1 µM

Compound: Cc1cc(S(=O)(=O)N[C@@H](C(=O)NO)C(C)C)ccc1OCc1ccccc1
- IC50 (Lethal factor [1]): > 20 µM
- IC50 (Lethal factor [2]): > 40 µM

Compound: Cc1ccc(S(=O)(=O)N[C@@H](C(=O)NO)C(C)C)cc1F
- IC50 (Lethal factor [1]): > 20 µM
- IC50 (Lethal factor [2]): 5.18 µM

Compound: CC(C)[C@@H](NS(=O)(=O)CC(F)(F)F)C(=O)NO
- IC50 (Lethal factor [1]): > 40 µM
- IC50 (Lethal factor [2]): > 40 µM

Compound: Cc1cc(S(=O)(=O)N[C@@H](C(=O)NO)C(C)C)ccc1O
- IC50 (Lethal factor [1]): > 20 µM
- IC50 (Lethal factor [2]): 1.64 µM

Compound: COc1ccc(S(=O)(=O)N(Cc2ccncc2)[C@@H](C(=O)NO)C(C)C)cc1
- IC50 (Lethal factor [1]): 9.5 µM
- IC50 (Lethal factor [2]): 3.1 µM

Compound: CC(C)[C@@H](NS(=O)(=O)c1ccc(Cl)s1)C(=O)NO
- IC50 (Lethal factor [1]): 6.45 µM
- IC50 (Lethal factor [2]): 1.31 µM

Compound: Cc1cc(S(=O)(=O)N[C@H](C)C(=O)NO)ccc1F
- IC50 (Lethal factor [1]): 2.1 µM
- IC50 (Lethal factor [2]): 0.13 µM

Compound: CC(C)[C@@H](NS(=O)(=O)c1ccc(F)c(CO)c1)C(=O)NO
- IC50 (Lethal factor [1]): 3.74 µM
- IC50 (Lethal factor [2]): 0.6 µM

Compound: Cc1cc(S(=O)(=O)N[C@@H](C(=O)NO)C2CCCCC2)ccc1F
- IC50 (Lethal factor [1]): 0.19 µM
- IC50 (Lethal factor [2]): 0.042 µM

Compound: CC(C)[C@@H](NS(=O)(=O)c1ccc(F)cc1CO)C(=O)NO
- IC50 (Lethal factor [1]): > 20 µM
- IC50 (Lethal factor [2]): 1.31 µM

Compound: CC(C)[C@@H](NS(=O)(=O)c1ccc(Oc2ccccc2)cc1)C(=O)NO
- IC50 (Lethal factor [1]): > 20 µM
- IC50 (Lethal factor [2]): > 40 µM

Compound: Cc1cc(S(=O)(=O)N[C@H](CCNC(=O)C(C)(C)N)C(=O)NO)ccc1F
- IC50 (Lethal factor [1]): 8.7 µM
- IC50 (Lethal factor [2]): 0.057 µM

Compound: CC(C)[C@@H](NS(=O)(=O)c1ccc(F)c2ccccc12)C(=O)NO
- IC50 (Lethal factor [1]): 2.76 µM
- IC50 (Lethal factor [2]): 0.46 µM

Compound: CC(C)[C@@H](NS(=O)(=O)c1ccc(F)cc1)C(=O)NO
- IC50 (Lethal factor [1]): 3 µM
- IC50 (Lethal factor [2]): 0.29 µM

Compound: Cc1cc(S(=O)(=O)N[C@@H](C(=O)NO)[C@@H](C)C2CC2)ccc1F
- IC50 (Lethal factor [1]): 0.46 µM
- IC50 (Lethal factor [2]): 0.065 µM

Compound: Cc1cc(S(=O)(=O)N[C@@H](C(=O)NO)C(C)C)ccc1F
- IC50 (Lethal factor [1]): 0.12 µM

Compound: Cc1cccc(S(=O)(=O)N[C@@H](C(=O)NO)C(C)C)c1
- IC50 (Lethal factor [1]): 1.29 µM
- IC50 (Lethal factor [2]): 0.4 µM

Compound: Cc1cc(S(=O)(=O)N[C@H](CCOCCN)C(=O)NO)ccc1F
- IC50 (Lethal factor [1]): 3.5 µM
- IC50 (Lethal factor [2]): 0.048 µM

Compound: CC(C)[C@@H](NS(=O)(=O)c1ccc(-c2ccccc2)cc1)C(=O)NO
- IC50 (Lethal factor [1]): > 20 µM
- IC50 (Lethal factor [2]): > 40 µM

Compound: COc1ccc(S(=O)(=O)N(C)[C@@H](C(=O)NO)C(C)C)cc1
- IC50 (Lethal factor [1]): 17 µM

Compound: Cc1cc(S(=O)(=O)NC(CCc2c[nH]cn2)C(=O)NO)ccc1F (racemic)
- IC50 (Lethal factor [1]): 2.8 µM
- IC50 (Lethal factor [2]): 0.075 µM

Compound: COc1ccc(S(=O)(=O)N(Cc2cccnc2)[C@@H](C(=O)NO)C(C)C)cc1.Cl [CGS-27023A]
- IC50 (Lethal factor [1]): 12 µM
- IC50 (Lethal factor [2]): 1.2 µM
- IC50 (Lethal factor [3]): Active

Compound: CC(C)[C@@H](NS(=O)(=O)c1ccc(-c2cnns2)s1)C(=O)NO
- IC50 (Lethal factor [1]): 10.2 µM
- IC50 (Lethal factor [2]): 0.81 µM

Compound: Cc1cc(S(=O)(=O)N[C@@H](C(=O)NO)C2CCC2)ccc1F
- IC50 (Lethal factor [1]): 0.67 µM
- IC50 (Lethal factor [2]): 0.13 µM

Compound: CC[C@H](C)[C@@H](NS(=O)(=O)c1ccc(F)c(C)c1)C(=O)NO
- IC50 (Lethal factor [1]): 0.23 µM
- IC50 (Lethal factor [2]): 0.067 µM

Compound: COc1ccc(S(=O)(=O)N[C@@H]2CCN(O)C2=O)cc1
- IC50 (Lethal factor [1]): > 40 µM
- IC50 (Lethal factor [2]): > 40 µM
